The values below are quoted from earlier work in US20210363253A1, “USE OF COMBINED TREATMENT OF PD-1 ANTIBODY AND APATINIB FOR TREATING TRIPLE NEGATIVE BREAST CANCER” (JIANGSU HENGRUI MEDICINE CO., LTD., priority 2017, published 2021).

For this data set the following is noted: with oxaliplatin, 5-Fu, docetaxel, doxorubicin; preclinical animal experiments.

Consider `N#CC1(c2ccc(NC(=O)c3cccnc3NCc3ccncc3)cc2)CCCC1` [Apatinib], for which the “efficacy of cytotoxic drugs in combination with Apatinib” value is “significantly increase their efficacy”.
